# Values joined by “and” are separate entries in the source; they are usually repeats but may differ in a detail not shown here. Equal values may be shown once.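 The compound was tested at five concentrations on cells cultured in 96-well plates, with a 48-hour exposure period. Abbreviation: GI50, concentration required for 50% inhibition of growth. TGI: total growth inhibition.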
# Legend:
# Experiment in all cases: NCI tumour cell line growth inhibition, 48 h
# 786-0 renal = system: 786-0 renal
# A498 renal = system: A498 renal
# CCRF-CEM leukemia = system: CCRF-CEM leukemia
# KM12 colon = system: KM12 colon
# MALME-3M melanoma = system: MALME-3M melanoma
# NCI-H23 lung = system: NCI-H23 lung
# OVCAR-8 ovarian = system: OVCAR-8 ovarian
# RPMI-8226 leukemia = system: RPMI-8226 leukemia
# SF-295 CNS = system: SF-295 CNS
# SNB-19 CNS = system: SNB-19 CNS
Structure (SMILES),GI50 (786-0 renal),TGI (786-0 renal),GI50 (A498 renal),TGI (A498 renal),GI50 (CCRF-CEM leukemia),TGI (CCRF-CEM leukemia),GI50 (KM12 colon),TGI (KM12 colon),GI50 (MALME-3M melanoma),TGI (MALME-3M melanoma),GI50 (NCI-H23 lung),TGI (NCI-H23 lung),GI50 (OVCAR-8 ovarian),TGI (OVCAR-8 ovarian),GI50 (RPMI-8226 leukemia),TGI (RPMI-8226 leukemia),GI50 (SF-295 CNS),TGI (SF-295 CNS),GI50 (SNB-19 CNS),TGI (SNB-19 CNS)
CCN(Cc1ccc(F)cc1F)c1ccc(CO)c(Cl)c1,5.91 µM,29 µM,0.0316 µM,0.136 µM,23.9 µM,> 88.5 µM,16.6 µM,32.9 µM,18.2 µM,42.8 µM,9.05 µM,24.3 µM,12.9 µM,41.3 µM,2.96 µM,32 µM,0.513 µM,14.7 µM,19.9 µM,68.8 µM
O=[N+]([O-])c1ccc2c(c1)OCCOCCOc1ccc([N+](=O)[O-])cc1OCCOCCO2,,> 100 µM,,> 100 µM,,> 100 µM,,> 100 µM,,> 100 µM,,> 100 µM,,> 100 µM,,> 100 µM,,> 100 µM,,> 100 µM
CC1=CCP(C(F)(F)F)P(C(F)(F)F)C1 (configuration not stated),,> 100 µM,,> 100 µM,,> 100 µM,,> 100 µM,,> 100 µM,,> 100 µM,,> 100 µM,,> 100 µM,,> 100 µM,,> 100 µM
COc1ccc(/C=C/C(=O)/C=C(/C=C/c2ccc(OC)c(OC)c2)OB(F)F)cc1OC,1.07 µM,2.93 µM,1.83 µM,5.12 µM,0.323 µM,2.63 µM,1.78 µM,3.95 µM,0.51 µM,4.25 µM,1.33 µM,4.17 µM,0.417 µM,> 100 µM,0.427 µM,2.81 µM,1.89 µM,4.87 µM,1.63 µM,5.73 µM
O=C1C(Cl)=C(Oc2ccccc2)C(=O)c2ccccc21,15.6 µM,29.1 µM,9.24 µM,22.6 µM,2.23 µM,8.32 µM,2.84 µM,8.84 µM,1.6 µM,3.41 µM,9.49 µM,24.5 µM,14.3 µM,36.8 µM,2.69 µM,11.4 µM,3.03 µM,11.3 µM,4.11 µM,17.4 µM
COc1ccc2c(CN3CCC(CO)CC3)cc3cc4c(cc3c2c1)OCO4,0.227 µM,4.65 µM,0.211 µM,0.554 µM,,0.373 µM,0.28 µM,4.34 µM,0.199 µM,0.799 µM,0.298 µM,1.5 µM,0.0844 µM,2.19 µM,0.256 µM,0.919 µM,0.241 µM,3.29 µM,0.392 µM,12.1 µM
COc1ccc(-n2c(-c3ccc(NC(=O)CCCl)cc3)nnc2-c2cc(OC)c(OC)c(OC)c2)cc1,12.5 µM,> 14.3 µM,3.82 µM,12.8 µM,4.53 µM,> 14.3 µM,2.35 µM,7.6 µM,4 µM,> 14.3 µM,3.66 µM,> 14.3 µM,7.87 µM,> 14.3 µM,2.85 µM,8.49 µM,5.02 µM,> 14.3 µM,4.33 µM,> 14.3 µM
CCCCCCC(O)C/C=C/CCCCCC/C(C(=O)OC)=C(/O)C(=O)OCC (configuration not stated),,> 100 µM,,> 100 µM,,> 100 µM,,> 100 µM,,> 100 µM,,> 100 µM,,> 100 µM,,> 100 µM,,> 100 µM,,> 100 µM
C=C1C(=O)OC2C1C(OC(=O)/C(C)=C/C)CC(O)(CCl)C1C(OC(C)=O)C=C(C)C21O (configuration not stated),,32.9 µM,,> 53.6 µM,,17.6 µM,,39.5 µM,,14.9 µM,,34.1 µM,,26.5 µM,,31.3 µM,,> 100 µM,,> 58.9 µM
N.N.NCCCCN.O=C([O-])CC(=O)[O-].O=C([O-])CC(=O)[O-].[Pt+4].[Pt+4],57.3 µM,> 100 µM,> 100 µM,> 100 µM,35.6 µM,> 100 µM,> 100 µM,> 100 µM,> 100 µM,> 100 µM,89.1 µM,> 100 µM,> 100 µM,> 100 µM,> 100 µM,> 100 µM,> 100 µM,> 100 µM,> 100 µM,> 100 µM
COC(=O)C(=O)C(C(=O)C(=O)Nc1ccc([N+](=O)[O-])cc1[N+](=O)[O-])c1nc2ccc([N+](=O)[O-])cc2[nH]c1=O (configuration not stated),,> 100 µM,,> 100 µM,,> 100 µM,,> 100 µM,,> 100 µM,,> 100 µM,,> 100 µM,,> 100 µM,,> 100 µM,,> 100 µM
Nc1nc(SCC(=O)O)[nH]c(=O)c1N,,> 100 µM,,> 100 µM,,7.24 µM,,> 100 µM,,> 100 µM,,> 100 µM,,> 100 µM,,99.7 µM,,> 100 µM,,> 100 µM
CN(C)CCN1N=Nc2cccc3cccc1c23,,> 100 µM,,> 100 µM,,> 78.8 µM,,> 100 µM,,> 100 µM,,> 100 µM,,> 100 µM,,> 64.3 µM,,> 100 µM,,> 100 µM
O=C1CC2(CCCc3sccc32)C(=O)N1 (configuration not stated),,> 100 µM,,> 100 µM,,> 100 µM,,> 100 µM,,> 100 µM,,> 100 µM,,> 100 µM,,> 100 µM,,> 100 µM,,> 100 µM
Cc1c2ncccc2c(C)c2c1[nH]c1ccc(O)cc12,5.25 µM,15.6 µM and 11.6 µM,,26.1 µM,4.65 µM,5.49 µM,7.19 µM and 7.87 µM,19.9 µM and 23.1 µM,6.44 µM and 32.7 µM,23.2 µM and 103 µM,11.9 µM and 19 µM,,4.99 µM and 2.86 µM,18.2 µM and 32.1 µM,3.07 µM,8.78 µM and 15.4 µM,4.53 µM,10.3 µM,19.7 µM,20.2 µM and 84.3 µM
O=C(Nc1ncc([N+](=O)[O-])s1)c1cccc([N+](=O)[O-])c1,2.57 µM,> 92 µM,2.1 µM,24.5 µM,2.39 µM,> 29.2 µM,4.61 µM,65.6 µM,2.79 µM,8.5 µM,2.87 µM,> 78.2 µM,3.2 µM,20.3 µM,1.43 µM,5.41 µM,2.71 µM,35.1 µM,3.53 µM,> 100 µM

# From PubChem BioAssay (NCI)
